Patent US20240287553A1, “Methods of Production of Double Unsaturated Pheromones Using Metabolic Pathways” (ISCA Technologies, Inc., priority 2022, published 2024)
“Also recorded” adds a separate entry of the source.

Assays:
[1] = system: antennae of male S. exigua; assay: GC-EAD electrophysiology of yeast-produced pheromone, male Spodoptera exigua antennae; conditions: extracts of yeast cell pellet and medium
Experimental: (§1) Insect rearing and tissue collection. The E. cautella individuals were reared on an artificial diet at 25±2.0° C. under an L16:D8 photoperiod as previously described in the field. Freshly emerged female adults were collected daily before the scotophase and considered to be 0 d old. The female pupae were collected separately, and the newly emerged adults were maintained in a vial under the same conditions. Laboratory cultures of S. exigua and P. interpunctella were reared at 23±1° C. under a 17:7 L:D photoperiod and 60% relative humidity and fed on wheat-germs based and beans based artificial diet, respectively. The male and female pupae were kept separately. Adults were fed with a 10% honey solution, and two- to three-day-old unmated males were used for the electrophysiological experiments.
Electrophysiology of ZETA yeast produced pheromone. The antennal electrophysiological activity of the yeast-derived pheromone was tested by gas chromatography with electroantennographic detection (GC-EAD). An Agilent 7890 gas chromatograph equipped with a flame ionization detector (FID), an HP-INNOWax column (30 m×0.25 mm i.d., and 0.25 μm film thickness; J&W Scientific, USA) was used. […]

[2] = system: antennae of male P. interpunctella; assay: GC-EAD electrophysiology of yeast-produced pheromone, male Plodia interpunctella antennae; conditions: extracts of yeast cell pellet and medium
Experimental: as §1
Electrophysiology of ZETA yeast produced pheromone. The antennal electrophysiological activity of the yeast-derived pheromone was tested by gas chromatography with electroantennographic detection (GC-EAD). An Agilent 7890 gas chromatograph equipped with a flame ionization detector (FID), an HP-INNOWax column (30 m×0.25 mm i.d., and 0.25 μm film thickness; J&W Scientific, USA) was used. Antennae of male S. exigua and P. interpunctella with both tips cut-off and associated with the head were mounted on a PRG-2 EAG (10× gain) probe (Syntech, Kirchzarten, Germany) using conductive gel (Blågel, Cefar, Malmö, Sweden). The antennal preparation was put in a flow of charcoal-filtered and humidified air that passed through the column outlet. Hydrogen was used as the carrier gas with a constant flow of 1.8 mL/min, and the GC effluent was directed to the FID and EAD by a 1:1 division. The GC inlet was set at 250° C., the transfer line was set at 255° C., and the detector was set at 280° C. The GC oven was programmed from 80° C. for 1 min, then increased to 210° C. at a rate of 10° C./min and held for 10 min. Data were collected with the software GC-EAD Pro Version 4.1 (Syntech).

Compound	antennal response (EAD) [1]	antennal response (EAD) [2]
CCCC/C=C\CCCCCCCCOC(C)=O [Z9-14:OAc, (Z)-9-tetradecenyl acetate]	responded strongly	responded strongly
C/C=C/C/C=C\CCCCCCCCOC(C)=O [ZETA, (Z,E)-9,12-tetradecadienyl acetate]	distinct antennal responses; also recorded: responded strongly; also recorded: typical antennal responses	distinct antennal responses; also recorded: responded strongly; also recorded: typical antennal responses
CCCCCCCCCCCCCCOC(C)=O [tetradecanyl acetate]		minor response
